Structures are written as SMILES. Counter-ions that a name gives are not always drawn.

Drawing on patent US9718828B2 (MERCK SHARP & DOHME CORP., priority 2011, dated 2017), this text covers IC50 and EC50 for 26 compounds.

The target of one experiment is hBTK (full-length BTK, 6HIS-tag cleaved) (Homo sapiens (Human), UniProt Q06187). Put plainly: BTK enzymatic activity, LANCE TR-FRET assay (Assay Method C). The class given is biochemical. As to conditions: LANCE TR-FRET, 50 pM hBTK, 25 μM ATP; class 100-1000 is given as ≧100 nM-<1 μM; read-out: IC50 Btk activity values - Assay Method C. In general terms: TR-FRET usually uses a lanthanide donor and a delayed reading to cut background.
Sequence of hBTK (full-length BTK, 6HIS-tag cleaved) (Q06187 whole entry): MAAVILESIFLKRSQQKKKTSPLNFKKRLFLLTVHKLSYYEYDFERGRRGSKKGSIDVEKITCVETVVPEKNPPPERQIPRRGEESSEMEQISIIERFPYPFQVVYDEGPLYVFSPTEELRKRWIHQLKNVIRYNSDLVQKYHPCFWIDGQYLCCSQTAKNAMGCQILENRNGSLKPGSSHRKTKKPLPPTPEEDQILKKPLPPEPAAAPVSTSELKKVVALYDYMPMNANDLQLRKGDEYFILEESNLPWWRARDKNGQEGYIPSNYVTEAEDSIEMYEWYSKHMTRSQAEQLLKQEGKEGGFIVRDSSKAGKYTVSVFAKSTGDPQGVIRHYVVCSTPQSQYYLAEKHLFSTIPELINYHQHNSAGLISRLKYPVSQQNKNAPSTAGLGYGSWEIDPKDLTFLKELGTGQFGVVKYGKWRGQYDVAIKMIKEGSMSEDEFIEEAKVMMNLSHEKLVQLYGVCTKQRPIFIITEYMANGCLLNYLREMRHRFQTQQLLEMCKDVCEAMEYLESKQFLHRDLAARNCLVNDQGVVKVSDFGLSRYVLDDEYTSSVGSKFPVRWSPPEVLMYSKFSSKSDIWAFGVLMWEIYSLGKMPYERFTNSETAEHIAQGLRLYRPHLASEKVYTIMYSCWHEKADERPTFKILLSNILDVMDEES
By IC50 is commonly meant the concentration at which inhibition is half-maximal. As for `CCc1ccnc(NC(=O)c2ccc(-c3nc([C@@H]4CCCN(C(=O)C5(O)CC5)C4)n4ccnc(N)c34)cc2)c1` [Example 371, 4-(8-amino-3-{(3R)-1-[(1-hydroxycyclopropyl)carbonyl]piperidin-3-yl}imidazo[1,5-a]pyrazin-1-yl)-N-(4-ethylpyridin-2-yl)benzamide], the IC50 was less than 10 nM.

Take `C[C@H](O)c1cnc(N)c2c(-c3ccc(C(=O)Nc4cc(C(F)(F)F)ccn4)cc3)nc([C@@H]3CCCN(C(=O)C4(C)COC4)C3)n12` [Example 466, 4-(8-amino-5-[(1S)-1-hydroxyethyl]-3-{(3R)-1-[(3-methyloxetan-3-yl)carbonyl]piperidin-3-yl}imidazo[1,5-a]pyrazin-1-yl)-N-[4-(trifluoromethyl)pyridin-2-yl]benzamide]: the IC50 was less than 10 nM.

On to `CC1(C(=O)N2CCC[C@@H](c3nc(-c4ccc(C(=O)Nc5ccc(C#N)cn5)cc4)c4c(N)nccn34)C2)COC1` [Example 327, 4-(8-amino-3-{(3R)-1-[(3-methyloxetan-3-yl)carbonyl]piperidin-3-yl}imidazo[1,5-a]pyrazin-1-yl)-N-(5-cyanopyridin-2-yl)benzamide], for which the IC50 is less than 10 nM.

For the compound `CN1C[C@@H](c2nc(-c3ccc(C(=O)Nc4cc(C(F)(F)F)ccn4)cc3F)c3c(N)nccn23)CC[C@@H]1C(F)(F)F` [Example 411, 4-{8-amino-3-[(3S,6R)-1-methyl-6-(trifluoromethyl)piperidin-3-yl]imidazo[1,5-a]pyrazin-1-yl}-3-fluoro-N-[4-(trifluoromethyl)pyridin-2-yl]benzamide], the IC50 is less than 10 nM.

On to `C[C@@H](O)C(=O)N1CCO[C@@H](c2nc(-c3ccc(C(=O)Nc4cc(C(F)(F)F)ccn4)cc3)c3c(N)nccn23)C1` [Example 520, 4-(8-amino-3-{(2R)-4-[(2R)-2-hydroxypropanoyl]morpholin-2-yl}imidazo[1,5-a]pyrazin-1-yl)-N-[4-(trifluoromethyl)pyridin-2-yl]benzamide], for which the 50% inhibitory concentration (IC50) is less than 10 nM.

For the compound `Nc1nccn2c([C@@H]3CCCN(C(=O)CCC(F)(F)F)C3)nc(-c3ccc(C(=O)Nc4cc(C(F)(F)F)ccn4)cc3)c12` [Example 331, 4-{8-amino-3-[(3R)-1-(4,4,4-trifluorobutanoyl)piperidin-3-yl]imidazo[1,5-a]pyrazin-1-yl}-N-[4-(trifluoromethyl)pyridin-2-yl]benzamide], the IC50 was less than 10 nM.

In another experiment the target is Btk enzyme (His-Btk) (Homo sapiens (Human), UniProt Q06187). Put plainly: Btk enzyme activity, IMAP fluorescence polarization assay (Assay Method A).
Sequence of Btk enzyme (His-Btk) (Q06187 whole entry): as above
Details: not given
Usually EC50 stands for the midpoint of the concentration-response curve. With `CC(C)(O)CC(=O)N1CCC[C@@H](c2nc(-c3ccc(C(=O)Nc4cc(C(F)(F)F)ccn4)cc3)c3c(N)nccn23)C1` [Example 71, (R)-4-(8-amino-3-(1-(3-hydroxy-3-methylbutanoyl)piperidin-3-yl)imidazo[1,5-a]pyrazin-1-yl)-N-(4-(trifluoromethyl)pyridin-2-yl)benzamide], the EC50 is less than 10 nM.

In turn, `CCC(F)(F)C(=O)N1CCC[C@@H](c2nc(-c3ccc(C(=O)Nc4ccccn4)cc3)c3c(N)nccn23)C1` [Example 93, (R)-4-(8-amino-3-(1-(2,2-difluorobutanoyl)piperidin-3-yl)imidazo[1,5-a]pyrazin-1-yl)-N-(pyridin-2-yl)benzamide] yielded a concentration for a half-maximal effect (EC50) of 10 to 100 nM.

As to `CC[C@H](C)C(=O)N1CCC[C@@H](c2nc(-c3ccc(C(=O)Nc4ccccn4)cc3)c3c(N)nccn23)C1` [Example 58, 4-(8-amino-3-((R)-1-((S)-2-methylbutanoyl)piperidin-3-yl)imidazo[1,5-a]pyrazin-1-yl)-N-(pyridin-2-yl)benzamide], the 50% effective concentration (EC50) was 10 to 100 nM.

On to `Nc1nccn2c([C@@H]3CCCN(CC4CCCC4)C3)nc(-c3ccc(C(=O)Nc4cc(C5CC5)ccn4)cc3)c12` [Example 143, (R)-4-(8-amino-3-(1-(cyclopentylmethyl)piperidin-3-yl)imidazo[1,5-a]pyrazin-1-yl)-N-(4-cyclopropylpyridin-2-yl)benzamide, TFA salt], for which the EC50 fell in the range of 10 to 100 nM.

`N#Cc1ccnc(NC(=O)c2ccc(-c3nc(C4CCCC4)n4ccnc(N)c34)cc2)c1` [Example 44, 4-(8-amino-3-cyclopentylimidazo[1,5-a]pyrazin-1-yl)-N-(4-cyanopyridin-2-yl)benzamide, TFA salt] showed a concentration giving a half-maximal response (EC50) of less than 10 nM.

Compound `CCNC(=O)N1CCC[C@@H](c2nc(-c3ccc(C(=O)Nc4cc(C5CC5)ccn4)cc3)c3c(N)nccn23)C1` [Example 63, (R)-3-(8-amino-1-(4-(4-cyclopropylpyridin-2-ylcarbamoyl)phenyl)imidazo [1,5-a]pyrazin-3-yl)-N-ethylpiperidine-1-carboxamide] returned an EC50 of less than 10 nM.

Compound `N#Cc1ccnc(NC(=O)c2ccc(-c3nc(C4CCOC4)n4ccnc(N)c34)cc2)c1` (centres unmarked) [Example 33, 4-(8-amino-3-(tetrahydrofuran-3-yl)imidazo[1,5-a]pyrazin-1-yl)-N-(4-cyanopyridin-2-yl)benzamide] returned an EC50 of 10 to 100 nM.

In the case of `CC(C)(C#N)C(=O)N[C@@H]1CCC[C@@H](c2nc(-c3ccc(C(=O)Nc4cc(C(F)(F)F)ccn4)cc3)c3c(N)nccn23)C1` (relative stereo) [Example 162, 4-(8-amino-3-((trans)-3-(2-cyano-2-methylpropanamido)-cyclohexyl)imidazo[1,5-a]pyrazin-1-yl)-N-(4-(trifluoromethyl)pyridin-2-yl)benzamide], the EC50 was less than 10 nM.

`Nc1nccn2c([C@@H]3CCCN(C(=O)C4CN(C(=O)c5ccccc5)C4)C3)nc(-c3ccc(C(=O)Nc4cc(C(F)(F)F)ccn4)cc3)c12` [Example 84, (R)-4-(8-amino-3-(1-(1-benzoylazetidine-3-carbonyl)piperidin-3-yl)imidazo[1,5-a]pyrazin-1-yl)-N-(4-(trifluoromethyl)pyridin-2-yl)benzamide] registered an EC50 of less than 10 nM.

Compound `NCCOCCOCCOCCOCCC(=O)N1CCC[C@@H](c2nc(-c3ccc(C(=O)Nc4cc(C(F)(F)F)ccn4)cc3)c3c(N)nccn23)C1` [Example 85, (R)-4-(8-amino-3-(1-(1-amino-3,6,9,12-tetraoxapentadecane)piperidin-3-yl)imidazo[1,5-a]pyrazin-1-yl)-N-(4-(trifluoromethyl)pyridin-2-yl)benzamide] yielded an EC50 of less than 10 nM.

Staying with this experiment, now noted: read-out: EC50 Btk activity values - Assay Method A.
As for `Nc1ncc(Cl)n2c([C@@H]3CCCNC3)nc(-c3ccc(C(=O)Nc4cc(C(F)(F)F)ccn4)cc3)c12` [Example 307], the EC50 is less than 10 nM.

Staying with this experiment, now noted: read-out: EC50 Btk activity values - Assay Method A; IMAP-FP, 60 min pre-incubation, 5 μM ATP.
Turning to `COCCC(=O)N1CCC[C@@H](c2nc(-c3ccc(C(=O)Nc4ccccn4)cc3C(F)(F)F)c3c(N)nccn23)C1` [Example 283, 4-(8-amino-3-((R)-1-(3-methoxypropanoyl)piperidin-3-yl)imidazo[1,5-a]pyrazin-1-yl)-N-(pyridin-2-yl)-3-(trifluoromethyl)benzamide, TFA salt], the EC50 was not below 1000 nM.

Still in this experiment, the particulars now being: read-out: EC50 Btk activity values - Assay Method A; IMAP-FP, 60 min pre-incubation, 5 μM ATP; class 100-1000 is given as ≧100 nM-<1 μM.
As for `Nc1nccn2c(C3CCCC3)nc(-c3ccc(C(=O)Nc4ccccn4)cc3)c12` [Example 45, 4-(8-amino-3-cyclopentylimidazo[1,5-a]pyrazin-1-yl)-N-(pyridin-2-yl)benzamide, TFA salt], the EC50 is less than 10 nM.

Consider `Nc1nccn2c([C@@H]3CCCN(C(=O)C4CC(F)(F)C4)C3)nc(-c3ccc(C(=O)Nc4cc(C5CC5)ccn4)cc3)c12` [Example 109, (R)-4-(8-amino-3-(1-(3,3-difluorocyclobutanecarbonyl)piperidin-3-yl)imidazo[1,5-a]pyrazin-1-yl)-N-(4-cyclopropylpyridin-2-yl)benzamide], for which the concentration giving a half-maximal response (EC50) was less than 10 nM.

Take `C[C@H]1CC[C@@H](c2nc(-c3ccc(C(=O)Nc4cc(C5CC5)ccn4)cc3)c3c(N)nccn23)CN1C(=O)CN1CCOC1=O` (relative stereo) [Example 196, 4-(8-amino-3-((cis)-6-methyl-1-(2-(2-oxooxazolidin-3-yl)acetyl)piperidin-3-yl)imidazo[1,5-a]pyrazin-1-yl)-N-(4-cyclopropylpyridin-2-yl)benzamide, TFA salt]: the concentration for a half-maximal effect (EC50) is less than 10 nM.

Take `C[C@H]1CC[C@@H](c2nc(-c3ccc(C(=O)Nc4cc(C(F)(F)F)ccn4)cc3)c3c(N)nccn23)CN1C(=O)C1CCC1(F)F` (relative stereo) [Example 190, 4-(8-amino-3-((cis)-1-(2,2-difluorocyclobutanecarbonyl)-6-methylpiperidin-3-yl)imidazo[1,5-a]pyrazin-1-yl)-N-(4-(trifluoromethyl)pyridin-2-yl)benzamide, TFA salt]: the EC50 is less than 10 nM.

In the case of `CC(C)(F)C(=O)N[C@@H]1CCC[C@@H](c2nc(-c3ccc(C(=O)Nc4cc(C(F)(F)F)ccn4)cc3)c3c(N)nccn23)C1` (relative stereo) [Example 163, 4-(8-amino-3-((trans)-3-(2-fluoro-2-methylpropanamido)cyclohexyl)imidazo[1,5-a]pyrazin-1-yl)-N-(4-(trifluoromethyl)pyridin-2-yl)benzamide], the concentration for a half-maximal effect (EC50) was less than 10 nM.

In the case of `CCNC(=O)N1C[C@H](c2nc(-c3ccc(C(=O)Nc4ccccn4)cc3)c3c(N)nccn23)CC[C@@H]1C` (relative stereo) [Example 193, (cis)-5-(8-amino-1-(4-(pyridin-2-ylcarbamoyl)phenyl)imidazo [1,5-a]pyrazin-3-yl)-N-ethyl-2-methylpiperidine-1-carboxamide, TFA salt], the EC50 is less than 10 nM.

Regarding `N#Cc1ccnc(NC(=O)c2ccc(-c3nc(C4CCc5[nH]nc(C6CC6)c5C4)n4ccnc(N)c34)cc2)c1` (centres unmarked) [Example 249, 4-(8-amino-3-(3-cyclopropyl-4,5,6,7-tetrahydro-1H-indazol-5-yl)imidazo[1,5-a]pyrazin-1-yl)-N-(4-cyanopyridin-2-yl)benzamide, TFA salt], the EC50 was less than 10 nM.

Regarding `CCC(=O)N1CCSC(c2nc(-c3ccc(C(=O)Nc4cc(C(F)(F)F)ccn4)cc3)c3c(N)nccn23)C1` (centres unmarked) [Example 172, 4-(8-amino-3-(4-propionylthiomorpholin-2-yl)imidazo[1,5-a]pyrazin-1-yl)-N-(4-(trifluoromethyl)pyridin-2-yl)benzamide], the 50% effective concentration (EC50) was less than 10 nM.
